Laboratory results taken from PMC9304199, “A small molecule CFTR potentiator restores ATP‐dependent channel gating to the cystic fibrosis mutant G551D‐CFTR” (British Journal of Pharmacology, 2022).

Target: F508del‐CFTR (Homo sapiens, UniProt P13569, DEL508-508)
Assay: Fluorescence-based halide flux assay (I−-induced quenching of YFP fluorescence) in FRT cells
Assay type: cell-based
Settings: exploratory data
Protocol: Fischer rat thyroid (FRT) epithelial cells (RRID:CVCL_A6IE) expressing CFTR variants were used for functional studies with halide flux and Ussing chamber techniques. FRT cells stably expressing the F508del variant with the V470 polymorphism and the halide sensor yellow fluorescent protein (YFP)‐H148Q/I152L (F508del‐CFTR‐YFP‐FRT cells) (Galietta et al., [2001]) were obtained from LJV Galietta (Telethon Institute for Genetics and Medicine, Pozzuoli, Italy). They were cultured in Coon's modified Ham's F‐12 medium supplemented with 10% FBS, 2‐mM GlutaMAX™, 0.27% NaHCO3, 100 U·ml^−1 penicillin and 100 μg·ml^−1 streptomycin and 0.8 mg·ml^−1 zeocin at 37°C in a humidified atmosphere with 5% CO2. […]
CFTR‐mediated anion transport was quantified by measuring I^−‐induced quenching of YFP fluorescence using a microtitre plate reader following the method of Galietta et al. ([2001]). […] Using a fluorescence microtitre plate reader (FLIPR384; Molecular Devices, San Jose, CA, USA) equipped with 500‐nm excitation and 535‐nm emission filters, an initial fluorescence reading was recorded before addition of PBS‐iodide solution (composition [mM]: 137 NaI, 2.7 KCl, 8.1 Na2HPO4, 1.5 KH2PO4, 1 CaCl2, and 0.5 MgCl2, pH 7.40) into each well and 21 s later a second fluorescence reading was acquired. […]

F508del‐CFTR, sequence (P13569 with tags, fused parts or gaps DEL508-508): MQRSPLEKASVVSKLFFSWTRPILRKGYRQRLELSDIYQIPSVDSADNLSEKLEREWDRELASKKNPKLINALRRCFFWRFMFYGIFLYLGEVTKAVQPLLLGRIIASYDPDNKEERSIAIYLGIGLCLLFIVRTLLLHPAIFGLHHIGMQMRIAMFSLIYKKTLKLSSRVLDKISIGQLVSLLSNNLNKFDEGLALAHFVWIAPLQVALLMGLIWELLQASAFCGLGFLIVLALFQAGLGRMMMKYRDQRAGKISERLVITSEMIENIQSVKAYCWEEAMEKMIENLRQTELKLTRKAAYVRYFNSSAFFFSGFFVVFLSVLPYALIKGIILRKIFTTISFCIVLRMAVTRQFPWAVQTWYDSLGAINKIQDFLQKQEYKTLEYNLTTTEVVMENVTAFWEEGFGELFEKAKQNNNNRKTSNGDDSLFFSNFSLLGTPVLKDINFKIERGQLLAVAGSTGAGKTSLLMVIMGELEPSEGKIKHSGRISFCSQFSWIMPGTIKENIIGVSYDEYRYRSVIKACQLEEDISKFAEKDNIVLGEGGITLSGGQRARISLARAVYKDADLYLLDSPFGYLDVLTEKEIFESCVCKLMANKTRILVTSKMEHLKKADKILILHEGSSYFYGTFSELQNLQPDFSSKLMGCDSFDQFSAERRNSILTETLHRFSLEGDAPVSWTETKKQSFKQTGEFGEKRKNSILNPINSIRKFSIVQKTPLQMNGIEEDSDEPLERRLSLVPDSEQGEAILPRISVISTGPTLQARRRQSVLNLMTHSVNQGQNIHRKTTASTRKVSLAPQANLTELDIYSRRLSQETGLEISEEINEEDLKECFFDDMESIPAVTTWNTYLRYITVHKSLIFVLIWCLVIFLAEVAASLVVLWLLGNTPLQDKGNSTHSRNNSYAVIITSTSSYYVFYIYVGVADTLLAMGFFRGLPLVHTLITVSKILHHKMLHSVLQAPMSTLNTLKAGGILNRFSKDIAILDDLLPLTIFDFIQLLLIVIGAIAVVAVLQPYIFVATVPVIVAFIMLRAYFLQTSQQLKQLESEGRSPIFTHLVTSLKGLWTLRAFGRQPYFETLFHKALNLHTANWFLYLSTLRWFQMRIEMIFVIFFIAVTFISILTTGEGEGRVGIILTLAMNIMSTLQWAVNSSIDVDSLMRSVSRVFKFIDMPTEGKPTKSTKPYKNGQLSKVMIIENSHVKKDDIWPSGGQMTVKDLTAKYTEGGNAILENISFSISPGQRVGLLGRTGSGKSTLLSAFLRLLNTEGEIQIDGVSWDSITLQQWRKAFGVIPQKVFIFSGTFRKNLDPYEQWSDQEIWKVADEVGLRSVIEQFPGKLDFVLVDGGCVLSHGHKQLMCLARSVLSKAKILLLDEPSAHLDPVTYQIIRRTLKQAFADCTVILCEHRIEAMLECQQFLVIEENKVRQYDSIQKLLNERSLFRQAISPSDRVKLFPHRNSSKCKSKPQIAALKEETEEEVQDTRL

Cc1ncccc1CNC(=O)c1ccc2c(c1)CC[C@H]1C[C@](O)(CCC(F)(F)F)CC[C@]21Cc1ccccc1 (racemic) [CP‐628006, rac‐(4bR,7R,8aS)‐4b‐benzyl‐7‐hydroxy‐N‐((2‐methylpyridin‐3‐yl)methyl)‐7‐(3,3,3‐trifluoropropyl)‐4b,5,6,7,8,8a,9,10‐octahydrophenanthrene‐2‐carboxamide]
maximal response compared with ivacaftor (FRT cells co-expressing low temperature-rescued F508del‐CFTR and YFP): approximately half that of ivacaftor | EC50 (FRT cells co-expressing low temperature-rescued F508del‐V470‐CFTR and YFP, forskolin 20 μM, scaled to DMSO 0% and genistein 50 μM 100%, read-out: EC50 for potentiation of CFTR-mediated anion transport): 400 nM
